From patent US20050288316A1, “Beta-carbolines as growth hormone secretagogue receptor (GHSR) antagonists” (priority 2003, published 2005)

How the values were obtained:
[1] = molecular target: T1, human GHSR (Homo sapiens, UniProt Q92847); assay: Functional FLIPR assay: inhibition of the ghrelin-evoked peak response in CHO cells stably expressing human GHSR (IC50, functional Ki); type: cell-based; details: functional Ki calculated from IC50 by Cheng-Prusoff equation, Fluo-4AM, ghrelin at EC70
T1 construct: host or cells: Chinese hamster ovary (CHO) cells
Procedure: Chinese hamster ovary cells (CHO), cell line (ES-410-F) purchased from Euroscreen, stably expressing the human GHSR seeded in 96 well plates are pre-loaded with Fluo-4AM fluorescent dye for 60 min before addition of test compounds (5 μM for primary screen). Fluorescent intensity is recorded using a Fluorometric imaging plate reader (FLIPR 98R 96-well format, Molecular Devices) and inhibition of the peak response evoked by ghrelin (EC70 concentration) is calculated.
Potency (IC50) determinations are performed utilizing the same functional assay as described for primary screening, applying the compounds in the concentration range of 170 pM to 10 μM or 340 pM to 20 μM.
The calculation of the functional Ki values for the inhibitors was performed by use of Activity Base. The Ki value is calculated from IC50 using the Cheng Prushoff equation (with reversible inhibition that follows the Michaelis-Menten equation): […] [Cheng, Y. C.; Prushoff, W. H. Biochem. Pharmacol. 1973, 22, 3099-3108]. […]

T1 sequence (Q92847 whole entry): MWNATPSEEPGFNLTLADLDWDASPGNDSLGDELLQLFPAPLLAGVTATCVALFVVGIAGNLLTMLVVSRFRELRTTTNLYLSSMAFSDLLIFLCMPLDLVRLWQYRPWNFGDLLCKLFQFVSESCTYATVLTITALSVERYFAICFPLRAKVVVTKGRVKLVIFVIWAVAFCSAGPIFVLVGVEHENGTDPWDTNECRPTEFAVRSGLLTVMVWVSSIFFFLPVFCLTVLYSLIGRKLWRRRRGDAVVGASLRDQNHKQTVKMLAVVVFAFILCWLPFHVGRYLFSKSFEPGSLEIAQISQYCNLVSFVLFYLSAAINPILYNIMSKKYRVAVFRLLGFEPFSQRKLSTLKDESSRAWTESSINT

melting point [°C]	Ki [1] [nM]	Compound
> 180	–	COc1ccc2[nH]c3c(c2c1)CCNC31CCNC1 (stereo not drawn) [Comparative Example 1, 6-Methoxy-2,3,4,9-tetrahydrospiro[beta-carboline-1,3′-pyrrolidine]]
–	60	COc1ccc2[nH]c3c(c2c1)CCNC31CCN(CCOc2ccccc2)C1 (stereo not drawn) [Example 10, 6-Methoxy-1′-(2-phenoxyethyl)-2,3,4,9-tetrahydrospiro[beta-carboline-1,3′-pyrrolidine]]
–	572	Fc1ccc2c3c([nH]c2c1)C1(CCN(CCOc2ccccc2)C1)NCC3 (stereo not drawn) [Example 11, 7-Fluoro-1′-(2-phenoxyethyl)-2,3,4,9-tetrahydrospiro[beta-carboline-1,3′-pyrrolidine]]
–	59	CCCCNC(=O)N1CCc2c([nH]c3ccc(OC)cc23)C12CCN(CCOc1ccccc1)C2 (stereo not drawn) [Example 30, N-Butyl-6-methoxy-1′-(2-phenoxyethyl)-4,9-dihydrospiro[beta-carboline-1,3′-pyrrolidine]-2(3H)-carboxamide]
